Assay results taken from ChEMBL document CHEMBL1128125, “Inhibitors of Acyl-CoA:Cholesterol O-acyltransferase (ACAT) as hypocholesterolemic agents 14. synthesis and structure-activity relationships of a novel series of sulfonamide tetrazoles” (Bioorg Med Chem Lett, 1995).

How the values were obtained:
[1] = Inhibition of Acyl coenzyme A:cholesterol acyltransferase (ACAT); design: species or system Oryctolagus cuniculus
Rattus norvegicus [2] = assay: Tested in vivo for its effect on changing plasma cholesterol level in rats at a dose of 30 mg/kg; assay type: functional
Rattus norvegicus [3] = assay: Tested in vivo for its effect on changing plasma cholesterol level in rats at a dose of 3 mg/kg; assay type: functional

SMILES	IC50 [1] [nM]	Delta TC (Rattus norvegicus [2]) [%]	Delta TC (Rattus norvegicus [3]) [%]
CCCCCCCCCCCCCCCCn1nnc(CS(=O)(=O)Nc2c(C(C)C)cccc2C(C)C)n1	600	-20	–
CCCCCCCCCCCCn1nnc(C(Cc2ccccc2)S(=O)(=O)Nc2c(C(C)C)cccc2C(C)C)n1 (stereo unspecified)	57	-27	–
CCCCCCCCCCCCn1nnnc1CS(=O)(=O)Nc1c(C(C)C)cccc1C(C)C	1200	-41	–
CCCCCCCCCCCCn1nnc(CS(=O)(=O)Nc2c(OC)cc(OC)cc2OC)n1	180	-60	–
CCCCCCCCCCCCCCCCCCn1nnc(CS(=O)(=O)Nc2c(C(C)C)cccc2C(C)C)n1	7600	-31	–
CCCCCCCCCCCCn1nnc(CC(=O)Nc2c(C(C)C)cccc2C(C)C)n1	2.6	-64	-62
CCCCCCCCCCCCCCCCCC(=O)Nc1c(OC)cc(OC)cc1OC	52	-11	-31
CCCCCCCCCCCCCCCCS(=O)(=O)Nc1c(OC)cc(OC)cc1OC	690	–	-31
CCCCCCCCCCCCCCn1nnc(CS(=O)(=O)Nc2c(C(C)C)cccc2C(C)C)n1	150	-42	–
CCCCCCCCCCCCn1nnc(C(C)S(=O)(=O)Nc2c(C(C)C)cccc2C(C)C)n1 (stereo unspecified)	32	-67	–
CCCCCCCCCCCCn1nnc(CS(=O)(=O)Nc2c(C(C)C)cccc2C(C)C)n1	22	-67	-59
CCCCCCCCCCCCn1nnnc1CS(=O)(=O)Nc1c(OC)cc(OC)cc1OC	3700	-30	–
CCCCCCCCCCCCn1nnc(C(C)(C)S(=O)(=O)Nc2c(C(C)C)cccc2C(C)C)n1	40	-53	–
CCCCCCCCn1nnc(CS(=O)(=O)Nc2c(C(C)C)cccc2C(C)C)n1	750	-14	–
